Counter-ions that a name gives are not always drawn.
Assay: in vitro
Conditions: rat, gh3-tre-luc cells

Row | SMILES | CC50 at 24 h (AC50 (uM) modified / 1000) | also measured
1 | CN(C)CCc1c[nH]c2ccc(O)cc12 [Bufotenine] |  | CC50 at 24 h (AC50 (uM) modified / 1000, Tox21_110001=Tox21_112890, viability, 1 nM T3 present, 24 h): > 90 µM
2 | O=C1C2CC3CC1CC(O)(C3)C2 [Idramantone] | > 50 µM | 
3 | CCC1(CC)C(=O)NC(=O)N(C)C1=O [Metharbital] |  | CC50 at 24 h (AC50 (uM) modified / 1000, Tox21_110001=Tox21_112752, viability, 1 nM T3 present, 24 h): > 50 µM
4 | N#CC1(O)CCCCC1 [Cyclohexanone cyanohydrin] | > 90 µM | 
5 | CCCCCC/C=C/C(=O)OC [Methyl (2E)-2-nonenoate] | > 90 µM | 
6 | O=C(Nc1ccccc1)N(Cc1ccc(Cl)cc1)C1CCCC1 [Pencycuron] | 54.7 µM | 
7 | CSc1nc(NC2CC2)nc(NC(C)(C)C)n1 [Cybutryne] | > 90 µM | 
8 | C[C@@H](Cc1ccccc1)NCc1ccccc1Cl [Clobenzorex hydrochloride] |  | CC50 at 24 h (AC50 (uM) modified / 1000, Tox21_110001=Tox21_111806, viability, 1 nM T3 present, 24 h): > 50 µM
9 | CC(C)c1ccc(O)c(C(C)C)c1 [2,4-Diisopropylphenol] | > 90 µM | 
10 | CC(C)C(OC(=O)c1ccccc1)C(C)(C)COC(=O)c1ccccc1 (stereo not drawn) [2,2,4-Trimethylpentane-1,3-diyl dibenzoate] | 76 µM | 
11 | CCOCCOC(C)=O [2-Ethoxyethyl acetate] | > 90 µM | 
12 | O=[N+]([O-])c1c(Cl)c(Cl)c(Cl)c(Cl)c1Cl [Pentachloronitrobenzene] | > 90 µM | 
13 | OCCOc1ccc(OCCO)cc1 [2,2'-[1,4-Phenylenebis(oxy)]diethanol] | > 90 µM | 
14 | C1CN2CCN1CC2 [1,4-Diazabicyclo[2.2.2]octane] | > 100 µM | 
15 | CC(=O)OC(C)C[N+](C)(C)C (stereo not drawn) [Methacholine chloride] | > 20 µM | 
16 | CC1(N)CCC(C(C)(C)N)CC1 (stereo not drawn) [1,8-Diamino-p-menthane] | > 90 µM | 
17 | CCCCCCCCCCCBr [1-Bromoundecane] | > 50 µM | 
18 | COc1cc2c(cc1N)oc1ccccc12 [2-Methoxy-3-aminodibenzofuran] | > 90 µM | 
19 | Cc1ccccc1NC(=N)Nc1ccccc1C [1,3-Bis(2-methylphenyl)guanidine] | > 90 µM | 
20 | Cc1ccc(N)cc1Cl [3-Chloro-4-methylaniline] | > 90 µM | 
21 | COc1cc(NCc2ccc3nc(N)nc(N)c3c2C)cc(OC)c1OC [Trimetrexate trihydrochloride] | 8.81 µM | 
22 | c1ccc2[nH]ccc2c1 [Indole] | > 90 µM | 
23 | CC(=O)C(=O)O [Pyruvic acid] | > 90 µM | 
24 | CC(=O)/N=c1/sc(S(N)(=O)=O)nn1C [Methazolamide] | > 20 µM | 
25 | Clc1ccc(Cl)c(Cl)c1Cl [1,2,3,4-Tetrachlorobenzene] | > 90 µM | 

Row | SMILES | CC50 at 24 h (AC50 (uM) modified / 1000) | also measured
26 | CC(Cc1ccccc1)(NC(=O)CN)c1ccccc1 (stereo not drawn) [Remacemide hydrochloride] | > 50 µM | 
27 | COCCCC/C(=N\OCCN)c1ccc(C(F)(F)F)cc1 [Fluvoxamine] | 15 µM | 
28 | O=C(NC(=O)c1ccccc1Cl)Nc1ccc(OC(F)(F)F)cc1 [Triflumuron] | > 90 µM | 
29 | CO[C@]12CC[C@@]3(C[C@@H]1[C@](C)(O)C(C)(C)C)[C@H]1Cc4ccc(O)c5c4[C@@]3(CCN1CC1CC1)[C@H]2O5 [Buprenorphine hydrochloride] | 23.1 µM | 
30 | O=C(NCN1CCOCC1)c1cnccn1 [Morphazinamide] | > 50 µM | 
31 | Cc1nc(-c2ccc(Cl)cc2)oc1COC(C)(C)C(=O)O [Romazarit] | > 50 µM | 
32 | CC(=O)[C@H]1CC[C@H]2[C@@H]3CC[C@H]4C[C@](C)(O)CC[C@]4(C)[C@H]3CC[C@]12C [Ganaxolone] |  | CC50 at 24 h (AC50 (uM) modified / 1000, Tox21_110001=Tox21_112264, viability, 1 nM T3 present, 24 h): > 50 µM
33 | O=Cc1ccc([N+](=O)[O-])cc1 [4-Nitrobenzaldehyde] | > 90 µM | 
34 | S=C=Nc1ccccc1 [Phenyl isothiocyanate] | > 90 µM | 
35 | NCCO/C=C/[C@H](N)C(=O)O [Aviglycine hydrochloride] | > 50 µM | 
36 | CCCCc1ccc2c(n1)[C@@H](c1ccc(OC)cc1C[C@H](C)C(=O)O)[C@H](C(=O)O)[C@H]2c1ccc2c(c1)OCO2 [MK-547] | > 90 µM | 
37 | O=S(=O)(O)c1cc(Cl)c(Cl)cc1Cl [2,4,5-Trichlorobenzenesulfonic acid] | > 90 µM | 
38 | NCCN [Ethylenediamine] | > 90 µM | 
39 | N#Cc1cscn1 [4-Thiazolecarbonitrile] | > 90 µM | 
40 | CC(C)CCCCCCCOC(=O)c1ccccc1C(=O)OCCCCCCCC(C)C [Diisodecyl phthalate] | > 90 µM | 
41 | CC(C)N(CCC(C(N)=O)(c1ccccc1)c1ccccn1)C(C)C (stereo not drawn) [Disopyramide] | > 50 µM | 
42 | CCCC(=O)O[C@]1(C(=O)CCl)[C@@H](C)C[C@H]2[C@@H]3CCC4=CC(=O)C=C[C@]4(C)[C@@]3(F)C(=O)C[C@@]21C [Clobetasone butyrate] | > 50 µM | 
43 | CC(C)NC[C@@H](O)COc1cccc2ccccc12 [Dexpropranolol] | 27.7 µM | 
44 | COc1ccc(C=O)cc1O [3-Hydroxy-4-methoxy-benzaldehyde] |  | CC50 at 24 h (AC50 (uM) modified / 1000, Tox21_110001=Tox21_202858, viability, 1 nM T3 present, 24 h): > 90 µM
45 | COCCl [Chloromethyl methyl ether] |  | CC50 at 24 h (AC50 (uM) modified / 1000, Tox21_110001=Tox21_201575, viability, 1 nM T3 present, 24 h): > 90 µM; CC50 at 24 h (AC50 (uM) modified / 1000, Tox21_110001=Tox21_302939, viability, 1 nM T3 present, 24 h): > 30 µM
46 | OCC(CO)(CO)CO [Pentaerythritol] | > 100 µM | 
47 | CC(=O)Nc1ccc(OCCOCCOc2ccc(NC(C)=O)cc2)cc1 [Diamfenetide] | > 50 µM | 
48 | O=C(NC(=O)c1c(F)cccc1F)Nc1cc(Cl)c(OC(F)(F)C(F)F)c(Cl)c1 [Hexaflumuron] | > 90 µM | 
49 | CCOC(=O)CC(O)(CC(=O)OCC)C(=O)OCC [Triethyl citrate] | > 90 µM | 
50 | C#CCN(C)[C@H](C)Cc1ccccc1 [Selegiline hydrochloride] | > 50 µM | 

Row | SMILES | CC50 at 24 h (AC50 (uM) modified / 1000) | also measured
51 | CCN1CCCC1CNC(=O)c1cc(S(=O)(=O)CC)ccc1OC (stereo not drawn) [Sultopride hydrochloride] | > 50 µM | 
52 | CCCCCCCCCCC[C@@H](C[C@@H]1OC(=O)[C@H]1CCCCCC)OC(=O)[C@H](CC(C)C)NC=O [Orlistat] | > 50 µM | 
53 | CN(C)c1cccc(O)c1 [3-Dimethylaminophenol] | > 90 µM | 
54 | C=C1[C@H]2CC[C@@H]3[C@H]2C(C)(C)CCC[C@]13C [Longifolene] | > 90 µM | 
55 | FC(F)(F)COCC(F)(F)F [Flurothyl] | > 50 µM | 
56 | CC(CN(C)C)C(C)(O)Cc1ccc(Cl)cc1 (stereo not drawn) [Clobutinol hydrochloride] | > 50 µM | 
57 | SCCSCCS [2,2'-Sulfanediyldiethanethiol] | > 90 µM | 
58 | CN1CCc2cc(Cl)c(O)cc2[C@H]2c3ccccc3CC[C@@H]21 [ecopipam] | 17.4 µM | 
59 | CCc1occc(=O)c1O [2-Ethyl-3-hydroxy-4H-pyran-4-one] | > 90 µM | 
60 | Oc1c(Cl)cccc1Cl [2,6-Dichlorophenol] | > 90 µM | 
61 | CCN(CC)CCc1c[nH]c2ccccc12 [N,N-Diethyltryptamine fumarate] |  | CC50 at 24 h (AC50 (uM) modified / 1000, Tox21_110001=Tox21_112891, viability, 1 nM T3 present, 24 h): > 100 µM
62 | CC(=O)CC(=O)N(C)C [N,N-Dimethylacetoacetamide] | > 90 µM | 
63 | CN1COCN(Cc2cnc(Cl)s2)/C1=N/[N+](=O)[O-] [Thiamethoxam] | > 90 µM | 
64 | C=C(C)C(=O)OCCO [2-Hydroxyethyl methacrylate] | > 90 µM | 
65 | CCC(C)(C)C1CCC(O)CC1 (stereo not drawn) [4-(2-Methylbutan-2-yl)cyclohexanol] | > 90 µM | 
66 | c1ccc(OCC2CO2)cc1 (stereo not drawn) [Phenyl glycidyl ether] | > 90 µM | 
67 | C1C[C@@H]2[C@H]3CC[C@H](C3)[C@@H]2C1 [Octahydro-exo-4,7-methano-1H-indene] | > 90 µM | 
68 | CN1C(=S)CN=C(c2ccccc2)c2cc(Cl)ccc21 [Sulazepam] | > 50 µM | 
69 | C[C@]12CC[C@H]3[C@@H](CCC4=CC(=O)CC[C@@]43C)[C@@H]1CC[C@H]2O [Epitestosterone] |  | CC50 at 24 h (AC50 (uM) modified / 1000, Tox21_110001=Tox21_111058, viability, 1 nM T3 present, 24 h): > 50 µM
70 | C#CCOC(=O)[C@@H](C)Oc1ccc(Oc2ncc(Cl)cc2F)cc1 [Clodinafop-propargyl] | > 90 µM | 
71 | CC1=CCCC(C)(C)C12CCC(C)O2 (stereo not drawn) [Theaspirane] | > 90 µM | 
72 | CC1COc2ccccc2N1 (stereo not drawn) [3-Methyl-3,4-dihydro-2H-1,4-benzoxazine] | > 90 µM | 
73 | CC(C)OC(=O)C(C)(C)Oc1ccc(C(=O)c2ccc(Cl)cc2)cc1 [Fenofibrate] | 78.6 µM | 
74 | NC(=O)c1ccc[n+]([C@@H]2O[C@H](COP(=O)([O-])OP(=O)(O)OC[C@H]3O[C@@H](n4cnc5c(N)ncnc54)[C@H](O)[C@@H]3O)[C@@H](O)[C@H]2O)c1 [Nadide] | > 20 µM | 

Reference: article PMC6792352, “Limited Chemical Structural Diversity Found to Modulate Thyroid Hormone Receptor in the Tox21 Chemical Library” (Environmental Health Perspectives, 2019)
